Test results as given in the NIST ThermoML archive (doi:10.1021/je400332j).

Assay: xn = mol fraction of the nth substance listed
Conditions: 101 kPa, Liquid; for viscosity: Concentric cylinders viscometry; for mass density: Vibrating tube method

CCCn1cc[n+](C)c1.F[B-](F)(F)F [1-propyl-3-methylimidazolium tetrafluoroborate] + CCn1cc[n+](C)c1.F[B-](F)(F)F
Conditions	mass density [kg/m3]	viscosity [mPa·s]
293.15 K, x2 = 0	1239.3	95.44
293.15 K, x2 = 0.1003	1243.5	88.85
293.15 K, x2 = 0.2001	1247.8	82.33
293.15 K, x2 = 0.2997	1251.7	76.28
293.15 K, x2 = 0.3999	1256.1	70.61
293.15 K, x2 = 0.4996	1260.6	65.46
293.15 K, x2 = 0.5991	1265	60.73
293.15 K, x2 = 0.6997	1269.7	56.34
293.15 K, x2 = 0.7999	1274.4	52.31
293.15 K, x2 = 0.8998	1279.2	48.61
298.15 K, x2 = 0	1235.7	74.04
298.15 K, x2 = 0.1003	1239.8	69.32
298.15 K, x2 = 0.2001	1244	64.62
298.15 K, x2 = 0.2997	1248	60.23
298.15 K, x2 = 0.3999	1252.4	56.1
298.15 K, x2 = 0.4996	1256.9	52.32
298.15 K, x2 = 0.5991	1261.3	48.83
298.15 K, x2 = 0.6997	1266	45.57
298.15 K, x2 = 0.7999	1270.6	42.59
298.15 K, x2 = 0.8998	1275.5	39.79
303.15 K, x2 = 0	1232	58.59
303.15 K, x2 = 0.1003	1236.2	55.12
303.15 K, x2 = 0.2001	1240.4	51.66
303.15 K, x2 = 0.2997	1244.3	48.42
303.15 K, x2 = 0.3999	1248.7	45.34
303.15 K, x2 = 0.4996	1253.2	42.52
303.15 K, x2 = 0.5991	1257.5	39.91
303.15 K, x2 = 0.6997	1262.1	37.45
303.15 K, x2 = 0.7999	1266.9	35.17
303.15 K, x2 = 0.8998	1271.7	33.06
308.15 K, x2 = 0	1228.3	47.16
308.15 K, x2 = 0.1003	1232.5	44.58
308.15 K, x2 = 0.2001	1236.6	41.98
308.15 K, x2 = 0.2997	1240.7	39.54
308.15 K, x2 = 0.3999	1245	37.21
308.15 K, x2 = 0.4996	1249.3	35.08
308.15 K, x2 = 0.5991	1253.8	33.08
308.15 K, x2 = 0.6997	1258.4	31.19
308.15 K, x2 = 0.7999	1263.1	29.45
308.15 K, x2 = 0.8998	1267.7	27.82
313.15 K, x2 = 0	1224.7	38.56
313.15 K, x2 = 0.1003	1228.8	36.6
313.15 K, x2 = 0.2001	1233	34.63
313.15 K, x2 = 0.2997	1237	32.76
313.15 K, x2 = 0.3999	1241.3	30.97
313.15 K, x2 = 0.4996	1245.6	29.33
313.15 K, x2 = 0.5991	1250.1	27.78
313.15 K, x2 = 0.6997	1254.6	26.3
313.15 K, x2 = 0.7999	1259.3	24.95
313.15 K, x2 = 0.8998	1264	23.67
318.15 K, x2 = 0	1221	31.98
318.15 K, x2 = 0.1003	1225.1	30.46
318.15 K, x2 = 0.2001	1229.3	28.93
318.15 K, x2 = 0.2997	1233.3	27.48
318.15 K, x2 = 0.3999	1237.6	26.08
318.15 K, x2 = 0.4996	1241.9	24.8
318.15 K, x2 = 0.5991	1246.3	23.6
318.15 K, x2 = 0.6997	1250.9	22.43
318.15 K, x2 = 0.7999	1255.6	21.36
318.15 K, x2 = 0.8998	1260.3	20.35
323.15 K, x2 = 0	1217.4	26.83
323.15 K, x2 = 0.1003	1221.5	25.66
323.15 K, x2 = 0.2001	1225.6	24.47
323.15 K, x2 = 0.2997	1229.7	23.33
323.15 K, x2 = 0.3999	1233.9	22.21
323.15 K, x2 = 0.4996	1238.2	21.2
323.15 K, x2 = 0.5991	1242.6	20.24
323.15 K, x2 = 0.6997	1247.1	19.31
323.15 K, x2 = 0.7999	1251.8	18.46
323.15 K, x2 = 0.8998	1256.5	17.65
328.15 K, x2 = 0	1213.8	22.77
328.15 K, x2 = 0.1003	1217.9	21.85
328.15 K, x2 = 0.2001	1222	20.91
328.15 K, x2 = 0.2997	1226	20.01
328.15 K, x2 = 0.3999	1230.3	19.1
328.15 K, x2 = 0.4996	1234.6	18.3
328.15 K, x2 = 0.5991	1238.9	17.52
328.15 K, x2 = 0.6997	1243.4	16.78
328.15 K, x2 = 0.7999	1248.1	16.07
328.15 K, x2 = 0.8998	1252.8	15.43
333.15 K, x2 = 0	1210.2	19.54
333.15 K, x2 = 0.1003	1214.3	18.8
333.15 K, x2 = 0.2001	1218.4	18.05
333.15 K, x2 = 0.2997	1222.4	17.32
333.15 K, x2 = 0.3999	1226.6	16.57
333.15 K, x2 = 0.4996	1230.9	15.92
333.15 K, x2 = 0.5991	1235.2	15.29
333.15 K, x2 = 0.6997	1239.8	14.67
333.15 K, x2 = 0.7999	1244.4	14.1
333.15 K, x2 = 0.8998	1249.1	13.58
338.15 K, x2 = 0	1206.6	16.92
338.15 K, x2 = 0.1003	1210.7	16.33
338.15 K, x2 = 0.2001	1214.8	15.72
338.15 K, x2 = 0.2997	1218.8	15.12
338.15 K, x2 = 0.3999	1222.9	14.49
338.15 K, x2 = 0.4996	1227.3	13.96
338.15 K, x2 = 0.5991	1231.6	13.43
338.15 K, x2 = 0.6997	1236.1	12.94
338.15 K, x2 = 0.7999	1240.7	12.46
338.15 K, x2 = 0.8998	1245.4	12.04
343.15 K, x2 = 0	1203	14.77
343.15 K, x2 = 0.1003	1207.1	14.3
343.15 K, x2 = 0.2001	1211.1	13.8
343.15 K, x2 = 0.2997	1215.2	13.3
343.15 K, x2 = 0.3999	1219.4	12.77
343.15 K, x2 = 0.4996	1223.7	12.32
343.15 K, x2 = 0.5991	1228	11.89
343.15 K, x2 = 0.6997	1232.5	11.47
343.15 K, x2 = 0.7999	1237.1	11.07
343.15 K, x2 = 0.8998	1241.7	10.74
